{
  "source": "patent US12220525B2",
  "about": "“Tiotropium formulation and inhaler” (KINDEVA DRUG DELIVERY L.P., priority 2018, dated 2025)",
  "test": "Delivered dose study (unit spray collection apparatus, USCA)",
  "type": "physicochemical",
  "experimental": "Metered dose inhalers (MDIs) were prepared using deep drawn aluminum canisters (3M Corporation, Cltheroe, UK), 50 microliter Bespak PBT (polybutylene terephthalate) valves (BK0514719, Bespak Europe Ltd, Bergen Way, King's Lynn, Norfolk, PE30 2JJ) fitted with EPDM (ethylene-propylene diene terpolymer elastomer) diaphragm seals, and an Mk6 P&B actuator. The internal surface of each canister was coated with FEP (fluorinated ethylene propylene copolymer). The bulk formulation for cold filling individual canisters can be prepared by first admixing citric acid and the ethanol, and then adding the tiotropium bromide to the citric acid and ethanol mixture. HFA-134a propellant was then added to a separate batching vessel, and the mixture of tiotropium bromide, citric acid, and ethanol was then added be to the HFA-134a. The formulation was mixed at −50° C. The metered dose inhalers made according to Table 1 were designed to deliver 5 micrograms of Tiotropium (free base) per actuation.\nThe start of unit life delivered dose was determined using standard unit spray collection apparatus (USCA) fitted with a filter. For each determination, an MDI was attached to the USCA using a coupler and actuated a single time. Immediately prior to attachment, the MDI was shaken. Prior to collection of the test sample, the MDI was primed by actuating four times. Prior to each priming shot the MDI was shaken.",
  "data": [
    {"smiles": "C[N+]1(C)[C@@H]2C[C@@H](OC(=O)C(O)(c3cccs3)c3cccs3)C[C@H]1[C@@H]1O[C@@H]12", "note": "[tiotropium bromide]", "values": [
      {"measurement": "Start of life dose content uniformity", "setting": "MDI with Table 1 formulation (0.1204 mg/ml tiotropium bromide, 0.04 wt. % citric acid, 15 wt. % ethanol, HFA-134a; FEP can), primed by actuating four times, single actuation, FIG. 5", "value": 4.3, "unit": "mcg/actuation"},
      {"measurement": "uniformity of dose delivered on storage", "setting": "MDI with Table 1 formulation, on storage, FIG. 7", "value": "remained constant on storage"}
    ]}
  ]
}
